Test results reported in patent US7563567B1, “Use of ECIST microarrays in an integrated method for assessing DNA methylation, gene expression and histone acetylation” (The Curators of the Univeristy of Missouri of Columbia, priority 2002, dated 2009).

Tests used:
CP70 cells [1] = assay: Semi-quantitative RT-PCR; assay type: cell-based, human; conditions: for HSPA.2 expression (RT-PCR): FIG. 21 row 1, no expression in untreated cells; for expression of eight Group 2 loci (RT-PCR): FIGS. 22A, 22B, unmethylated loci
CP70 cells [2] = assay: Expression microarray analysis (ECIST panel, triple analysis); assay type: cell-based, human; conditions: for number of Group 1 (hypermethylated) loci with increased expression: FIG. 20D; for percent of ECIST loci up-regulated 4-fold or greater / total number of ECISTs up-regulated 4-fold or greater: of 1507 loci, DAC 0.5 μM 4 days, TSA 0.5 μM 12 h
BIK gene = conditions: cited from earlier work
MDA-MB-231 cells [3] = assay: ECIST expression microarray, deoxyC-treated vs untreated cells; assay type: cell-based, human
MDA-MB-231 cells [4] = assay: RT-PCR verification of ECIST loci responsive to demethylation; assay type: cell-based, human
[5] = 0.75 μM, 4 days, among 1,162 ECISTs
[6] = average normalized ratio, 0.75 μM treated vs untreated

CC(/C=C/C(=O)NO)=C\[C@@H](C)C(=O)c1ccc(N(C)C)cc1 [TSA, trichostatin A]
HSPA.2 expression (RT-PCR) (CP70 cells [1]): remained unchanged
expression of eight Group 2 loci (RT-PCR) (CP70 cells [1]): Increased expression of some of these loci
expression of Group 2a genes (unmethylated promoters) (CP70 cells [2]): increased expression
number of Group 1 (hypermethylated) loci with increased expression (CP70 cells [2]): No significant change in expression
percent of ECIST loci up-regulated 4-fold or greater (CP70 cells [2]): 1.1%
total number of ECISTs up-regulated 4-fold or greater (CP70 cells [2]): 17
induction of the BIK gene (BIK gene; Suzuki et al., cell line not stated): induced in a methylation-independent manner

Nc1ncn([C@H]2C[C@H](O)[C@@H](CO)O2)c(=O)n1 [DAC, 5-aza-2′-deoxycytidine]
HSPA.2 expression (RT-PCR) (CP70 cells [1]): increased
expression of eight Group 2 loci (RT-PCR) (CP70 cells [1]): Increased expression of some of these loci
expression of Group 2a genes (unmethylated promoters) (CP70 cells [2]): not by DAC alone
number of Group 1 (hypermethylated) loci with increased expression (CP70 cells [2]): 11
percent of ECIST loci up-regulated 4-fold or greater (CP70 cells [2]): 1.9%
total number of ECISTs up-regulated 4-fold or greater (CP70 cells [2]): 29
time by which BIK expression returned to control levels (BIK gene; human lung cancer cell line, after treatment): ≤ 72 h
induction of the apoptosis promoting factor BIK (BIK gene; human lung cancer cell line): early induction
number of hypermethylated ECIST loci whose transcripts can be reactivated (MDA-MB-231 cells [3]; 0.75 μM): 30
number of hypermethylated ECIST loci whose transcripts could not be reactivated (or up-regulated) (MDA-MB-231 cells [3]; 0.75 μM): 189
number of loci up-regulated in response to demethylation but not associated with CpG island hypermethylation (MDA-MB-231 cells [3]; 0.75 μM): 96
down-regulated ECIST loci (SAM analysis) (MDA-MB-231 cells [3]; [5]): No down-regulated loci were identified
number of statistically significant up-regulated ECIST loci (SAM, false-positive rate 1%) (MDA-MB-231 cells [3]; [5]): 126
Cy5/Cy3 Expression, CpG5B6 (CYP27B1) (MDA-MB-231 cells [3]; [6]): 2.7
Cy5/Cy3 Expression, CpG6B6 (dJ631M13.5) (MDA-MB-231 cells [3]; [6]): 2.6
Cy5/Cy3 Expression, CpG15E2 (MDA-MB-231 cells [3]; [6]): 3.3
Cy5/Cy3 Expression, CpG21G11 (MDA-MB-231 cells [3]; [6]): 2.9
Cy5/Cy3 Expression, CpG32H12 (MDA-MB-231 cells [3]; [6]): 2.6
Cy5/Cy3 Expression, CpG65A1 (TNS) (MDA-MB-231 cells [3]; [6]): 4.3
Cy5/Cy3 Expression, CpG65C10 (TBX4) (MDA-MB-231 cells [3]; [6]): 4.7
Cy5/Cy3 Expression, DL2F9 (ERCC-1) (MDA-MB-231 cells [3]; [6]): 3.8
Cy5/Cy3 Expression, MP1F6 (LOC84661) (MDA-MB-231 cells [3]; [6]): 2.1
Cy5/Cy3 Expression, MP2F1 (H4FJ) (MDA-MB-231 cells [3]; [6]): 3.2
Cy5/Cy3 Expression, MP2F10 (MDA-MB-231 cells [3]; [6]): 3.2
Cy5/Cy3 Expression, PY1H8 (PSMB4) (MDA-MB-231 cells [3]; [6]): 2.1
Cy5/Cy3 Expression, PY2F1 (FLJ10466) (MDA-MB-231 cells [3]; [6]): 3.2
Cy5/Cy3 Expression, PY3D3 (EST AI023535) (MDA-MB-231 cells [3]; [6]): 2.4
Cy5/Cy3 Expression, PY3D6 (EST BI518683) (MDA-MB-231 cells [3]; [6]): 2.0
Cy5/Cy3 Expression, PY3F2 (HSRN04) (MDA-MB-231 cells [3]; [6]): 2.0
Cy5/Cy3 Expression, SC2C3 (EST BE502068) (MDA-MB-231 cells [3]; [6]): 4.9
Cy5/Cy3 Expression, SC8F2 (RPS16) (MDA-MB-231 cells [3]; [6]): 2.0
Cy5/Cy3 Expression, SC12A2 (SAAS) (MDA-MB-231 cells [3]; [6]): 2.2
Cy5/Cy3 Expression, SC13D6 (EST183864) (MDA-MB-231 cells [3]; [6]): 2.1
Cy5/Cy3 Expression, SC15E7 (MDA-MB-231 cells [3]; [6]): 4.0
Cy5/Cy3 Expression, SC15H6 (H2BFR) (MDA-MB-231 cells [3]; [6]): 2.6
Cy5/Cy3 Expression, SC19F1 (EST BE838797) (MDA-MB-231 cells [3]; [6]): 2.7
Cy5/Cy3 Expression, SC20G3 (HOXD3) (MDA-MB-231 cells [3]; [6]): 2.3
Cy5/Cy3 Expression, SC21A8 (U3B2) (MDA-MB-231 cells [3]; [6]): 3.2
Cy5/Cy3 Expression, SC21G11 (HSPA2) (MDA-MB-231 cells [3]; [6]): 5.4
Cy5/Cy3 Expression, SC40C8 (H2BFG) (MDA-MB-231 cells [3]; [6]): 2.7
Cy5/Cy3 Expression, SC77F6 (TTF-1) (MDA-MB-231 cells [3]; [6]): 3.8
Cy5/Cy3 Expression, SC87E7 (EST AA365852) (MDA-MB-231 cells [3]; [6]): 2.4
Cy5/Cy3 Expression, SC89F2 (HAGE) (MDA-MB-231 cells [3]; [6]): 14.6
expression of CYP27B1, HSPA2, TTF-1, FLJ10466 and EST183864 by RT-PCR (MDA-MB-231 cells [4]; 0.75 μM treated vs untreated, FIG. 17A): reactivated
expression levels of CpG12F10, MP2A3 and MP3D7 by RT-PCR (MDA-MB-231 cells [4]; treated relative to untreated cells, loci not hypermethylated, FIG. 17B): increased
